# Reference: patent publication US11225475B2, “Substituted pyridines as inhibitors of histone deacetylase” (Alkermes, Inc., priority 2017, dated 2022)
# Molecular target: T1, HDAC2 (Homo sapiens (Human), UniProt Q92769)
# Assay: HDAC2 enzymatic assay (deacetylation of peptide substrate, Caliper LabChip)
# Format: biochemical
# Conditions: reaction time 17 hours, 25° C.
# Procedure: (§1) The following describes an assay protocol for measuring the deacetylation of a peptide substrate by the enzymes HDAC2 or HDAC1. Enzyme, substrate, and cofactors are combined in a well of a microtiter plate and incubated for […] at 25° C. At the end of the incubation, the reaction is quenched by the addition of an SDS-containing buffer. Substrate and product are separated and quantified electrophoretically using the microfluidic-based LabChip 3000 Drug Discovery System from Caliper Life Sciences. The peptide substrate used in this assay is FAM-TSRHK(AC)KL-CONH2 (FAM is carboxyfluorescein). Peptide should be >98% purity by Capillary Electrophoresis. • 1. To a well of a 384-well plate, add 5 μL of 2× enzyme buffer. Using Labcyte Echo 550, add 100 nl compound. Enzyme and compound may be pre-incubated at this time if desired. • 2. Add 5 μL of 2× substrate buffer. • 3. Incubate plate at 25° C. for 17 hours. • 4. Terminate reaction by adding 40 μL of 1.55× stop buffer. • 5. Create job on a Caliper LabChip® 3000 Drug Discovery System. • 6. Load the plate and start electrophoresis using blue laser (480 nm) for excitation and green CCD (520 nm) for detection (CCD2). Reaction time=17 hours; Reaction temperature=25° C.
# (§2) 1% DMSO (from compound) 1 μM FAM-TSRHK(AC)KL-CONH2 5 nM HDAC Enzyme (specific activity may vary from lot-to-lot, and enzyme concentration may need to be adjusted to yield ˜10-20% conversion of substrate to product).
# (§3) Substrate and product peptides present in each sample are separated electrophoretically using the LabChip 3000 capillary electrophoresis instrument. As substrate and product peptides are separated, two peaks of fluorescence are observed. Change in the relative fluorescence intensity of the substrate and product peaks is the parameter measured, reflecting enzyme activity. Capillary electrophoregramms (RDA acquisition files) are analyzed using HTS Well Analyzer software (Caliper Life Sciences). The enzyme activity in each sample is determined as the product to sum ratio (PSR):P/(S+P), where P is the peak height of the product peptide and S is the peak height of the substrate peptide. For each compound, enzyme activity is measured at various concentrations (12 concentrations of compound spaced by 3× dilution intervals). Negative control samples (0%-inhibition in the absence of inhibitor) and positive control samples (100%-inhibition, in the presence of 20 mM EDTA) are assembled in replicates of four and are used to calculate %-inhibition values for each compound at each concentration. Percent inhibition (Pinh) is determined using following equation: Pinh=(PSR0%−PSRinh)/(PSR0%−PSR100%)*100, where PSRinh is the product sum ratio in the presence of inhibitor, PSR0% is the average product sum ration in the absence of inhibitor and PSR100% is the average product sum ratio in 100%-inhibition control samples.
# (§4) The IC50 values of inhibitors are determined by fitting the inhibition curves (Pinh versus inhibitor concentration) by 4 parameter sigmoidal dose-response model using XLfit 4 software (MDS).
# T1 sequence (Q92769 whole entry): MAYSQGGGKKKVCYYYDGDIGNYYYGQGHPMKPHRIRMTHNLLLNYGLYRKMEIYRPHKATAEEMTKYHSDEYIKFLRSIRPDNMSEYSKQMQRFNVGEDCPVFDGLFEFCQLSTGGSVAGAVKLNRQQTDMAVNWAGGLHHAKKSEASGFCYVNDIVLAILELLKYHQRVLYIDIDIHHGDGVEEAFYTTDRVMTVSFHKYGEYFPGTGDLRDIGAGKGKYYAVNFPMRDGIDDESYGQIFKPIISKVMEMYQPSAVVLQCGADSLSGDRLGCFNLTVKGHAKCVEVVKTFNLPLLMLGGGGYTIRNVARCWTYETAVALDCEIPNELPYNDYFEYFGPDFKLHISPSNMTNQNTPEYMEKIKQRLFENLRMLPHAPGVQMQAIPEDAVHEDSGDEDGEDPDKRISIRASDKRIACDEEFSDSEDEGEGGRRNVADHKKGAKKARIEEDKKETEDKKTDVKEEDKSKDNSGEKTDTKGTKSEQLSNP
row,Structure (SMILES),IC50 [nM]
1,Cc1cc2c(cn1)CN(C(=O)Nc1nc(-c3ccc(F)cc3F)ccc1N)C2 [Compound 1],100 to 500
2,COCc1ccc2c(n1)CN(C(=O)Nc1nc(-c3ccc(F)cc3F)ccc1N)C2 [Compound 2],500 to 5000
3,Cc1nc2c(s1)CN(C(=O)Nc1nc(-c3ccc(F)cc3F)ccc1N)C2 [Compound 3],500 to 5000
4,Nc1ccc(-c2ccc(F)cc2F)nc1NC(=O)N1Cc2cnc(CN3CC(F)C3)cc2C1 [Compound 4],500 to 5000
5,Cc1ncc2c(n1)CN(C(=O)Nc1nc(-c3ccc(F)cc3F)ccc1N)C2 [Compound 5],500 to 5000
6,COCCn1cc2c(n1)CN(C(=O)Nc1nc(-c3ccc(Cl)s3)ccc1N)C2 [Compound 6],500 to 5000
7,CCc1ncc2c(n1)CN(C(=O)Nc1nc(-c3ccc(F)cc3F)ccc1N)C2 [Compound 7],500 to 5000
8,COCCn1cc2c(n1)CN(C(=O)Nc1nc(-c3ccccc3F)ccc1N)C2 [Compound 8],500 to 5000
9,COCc1cc2c(cn1)CN(C(=O)Nc1nc(-c3ccccc3F)ccc1N)C2 [Compound 9],500 to 5000
10,CCn1cc2c(n1)CN(C(=O)Nc1nc(-c3ccc(F)cc3F)ccc1N)C2 [Compound 10],100 to 500

# Molecular target: HDAC1 (Homo sapiens (Human), UniProt Q13547)
# Assay: HDAC1 enzymatic assay (deacetylation of peptide substrate, Caliper LabChip)
# Format: biochemical
# Conditions: reaction time 17 hours, 25° C.
# Procedure: as §1, §2, §3, §4
# Sequence of HDAC1 (Q13547 whole entry): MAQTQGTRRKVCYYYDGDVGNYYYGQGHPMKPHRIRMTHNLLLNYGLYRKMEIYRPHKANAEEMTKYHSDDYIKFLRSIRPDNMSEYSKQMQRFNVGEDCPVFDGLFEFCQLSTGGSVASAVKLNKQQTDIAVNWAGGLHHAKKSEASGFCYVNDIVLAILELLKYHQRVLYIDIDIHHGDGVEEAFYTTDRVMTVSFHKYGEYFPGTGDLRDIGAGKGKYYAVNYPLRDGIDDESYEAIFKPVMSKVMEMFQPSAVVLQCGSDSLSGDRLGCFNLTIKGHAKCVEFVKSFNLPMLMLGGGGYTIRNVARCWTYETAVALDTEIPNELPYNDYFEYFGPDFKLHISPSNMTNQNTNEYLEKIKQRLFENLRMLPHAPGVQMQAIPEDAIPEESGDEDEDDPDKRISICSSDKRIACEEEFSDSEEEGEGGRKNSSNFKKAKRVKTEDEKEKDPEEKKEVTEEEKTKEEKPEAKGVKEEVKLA
row,Structure (SMILES),IC50 [nM]
1,Cc1cc2c(cn1)CN(C(=O)Nc1nc(-c3ccc(F)cc3F)ccc1N)C2 [Compound 1],100 to 500
2,COCc1ccc2c(n1)CN(C(=O)Nc1nc(-c3ccc(F)cc3F)ccc1N)C2 [Compound 2],100 to 500
3,Cc1nc2c(s1)CN(C(=O)Nc1nc(-c3ccc(F)cc3F)ccc1N)C2 [Compound 3],100 to 500
4,Nc1ccc(-c2ccc(F)cc2F)nc1NC(=O)N1Cc2cnc(CN3CC(F)C3)cc2C1 [Compound 4],100 to 500
5,Cc1ncc2c(n1)CN(C(=O)Nc1nc(-c3ccc(F)cc3F)ccc1N)C2 [Compound 5],500 to 5000
6,COCCn1cc2c(n1)CN(C(=O)Nc1nc(-c3ccc(Cl)s3)ccc1N)C2 [Compound 6],500 to 5000
7,CCc1ncc2c(n1)CN(C(=O)Nc1nc(-c3ccc(F)cc3F)ccc1N)C2 [Compound 7],100 to 500
8,COCCn1cc2c(n1)CN(C(=O)Nc1nc(-c3ccccc3F)ccc1N)C2 [Compound 8],100 to 500
9,COCc1cc2c(cn1)CN(C(=O)Nc1nc(-c3ccccc3F)ccc1N)C2 [Compound 9],100 to 500
10,CCn1cc2c(n1)CN(C(=O)Nc1nc(-c3ccc(F)cc3F)ccc1N)C2 [Compound 10],100 to 500

# Molecular target: T1, HDAC2
# Assay: HDAC2 enzymatic inhibition assay in SH-SY5Y cell lysate (HDAC-Glo 2)
# Format: cell-based
# Conditions: SH-SY5Y cells, five hours incubation
# Procedure: SH-SY5Y cells (Sigma) were cultured in Eagle's Modified Essential Medium supplemented with 10% fetal bovine serum and pen/strep. Twenty-four hours prior to compound dosing 20 uL of cells were plated in white 384 well plates at a density of 1,500 cells/well. Compounds were serially diluted in neat DMSO and then diluted 1:100 v/v into media without FBS and mixed. Media was removed from the plated cells and the diluted compounds in serum free media (1% v/v final DMSO) were added and incubated at 37.0 for five hours. Ten uL of HDAC-Glo 2 reagent with 0.1% Triton X-100 was then added, the plate was mixed and allowed to develop at room temperature for 100 minutes. Plates were then read with a Spectramax LMax luminometer employing a 0.4s integration time. Dose response curves were constructed with normalized data where CI-994 at 100 uM was defined as 100% inhibition and DMSO alone as 0% inhibition.
row,Structure (SMILES),IC50 [nM]
1,Cc1cc2c(cn1)CN(C(=O)Nc1nc(-c3ccc(F)cc3F)ccc1N)C2 [Compound 1],100 to 1000
2,COCc1ccc2c(n1)CN(C(=O)Nc1nc(-c3ccc(F)cc3F)ccc1N)C2 [Compound 2],1000 to 1500
3,Cc1nc2c(s1)CN(C(=O)Nc1nc(-c3ccc(F)cc3F)ccc1N)C2 [Compound 3],100 to 1000
4,Nc1ccc(-c2ccc(F)cc2F)nc1NC(=O)N1Cc2cnc(CN3CC(F)C3)cc2C1 [Compound 4],1000 to 1500
5,Cc1ncc2c(n1)CN(C(=O)Nc1nc(-c3ccc(F)cc3F)ccc1N)C2 [Compound 5],1000 to 1500
6,COCCn1cc2c(n1)CN(C(=O)Nc1nc(-c3ccc(Cl)s3)ccc1N)C2 [Compound 6],> 1500
7,CCc1ncc2c(n1)CN(C(=O)Nc1nc(-c3ccc(F)cc3F)ccc1N)C2 [Compound 7],100 to 1000
8,COCCn1cc2c(n1)CN(C(=O)Nc1nc(-c3ccccc3F)ccc1N)C2 [Compound 8],100 to 1000
9,COCc1cc2c(cn1)CN(C(=O)Nc1nc(-c3ccccc3F)ccc1N)C2 [Compound 9],100 to 1000
10,CCn1cc2c(n1)CN(C(=O)Nc1nc(-c3ccc(F)cc3F)ccc1N)C2 [Compound 10],100 to 1000

# System: human erythroid (CFU-E, BFU-E) progenitors
# Assay: Erythroid CFU assay (human bone marrow clonogenic progenitors)
# Format: cell-based
# Conditions: 10 uM, 14 days in culture
# Procedure: (§5) Clonogenic progenitors of human erythroid (CFU-E, BFU-E), granulocyte-monocyte (CFU-GM) and multipotential (CFU-GEMM) lineages were assessed in a semi-solid methylcellulose-based media formulation containing rhIL-3 (10 ng/mL), rhGM-SCF (10 ng/mL), rhSCF (50 ng/mL) and Epo (3 U/mL).
# (§6) Normal human bone marrow light density cells derived from normal bone marrow (NorCal Biologics, California) and qualified at ReachBio, were stored in the gaseous phase of liquid nitrogen (−152° C.) until required for the assay. On the day of the experiment, the cells were thawed rapidly, the contents of each vial was diluted in 10 mL of Iscove's modified Dulbecco's medium containing 10% fetal bovine serum (IMDM+10% FBS) and washed by centrifugation (approximately 1200 r.p.m. for 10 minutes, room temperature). The supernatant was discarded and the cell pellets resuspended in a known volume of IMDM+10% FBS. A cell count (3% glacial acetic acid) and viability assessment (trypan blue exclusion test) was performed for the bone marrow sample.
# (§7) On the day of the experiment, the compounds were dissolved in DMSO to a stock concentration of 10 mM. Serial dilutions were prepared from the stock concentration to achieve concentrations of 2 and 0.4 mM. When added to the methylcellulose-based media at 1:1000 (v/v), the final test concentrations of 10, 2 and 0.4 μM were achieved. Additionally, 5-FU was evaluated at 1.0, 0.1 and 0.01 μg/mL.
# (§8) Clonogenic progenitors of the human erythroid (CFU-E and BFU-E) and myeloid (CFU-GM) lineages were set up in the methylcellulose-based media formulations described above. All compounds were added to the medium to give the final desired concentrations ([…] 5-Fluorouracil (Sigma Aldrich) was used as a positive control for progenitor proliferation (inhibition of colony growth) and was introduced to the human bone marrow cultures at 1.0, 0.1, and 0.01 μg/mL. Solvent control cultures (containing no compound but 0.1% DMSO) as well as standard controls (containing no compound and no DMSO) were also initiated.
# (§9) Human myeloid and erythroid progenitor assays were initiated at 2.0×10^4 cells per culture. Following 14 days in culture, myeloid and erythroid colonies were assessed microscopically and scored by trained personnel. The colonies were divided into the following categories based on size and morphology: CFU-E, BFU-E, CFU-GM and CFU-GEMM.
# (§10) The mean±one standard deviation of three replicate cultures was calculated for progenitors of each category (CFU-E, BFU-E, etc.). Two-tailed t-tests were performed to assess if there was a difference in the number of colonies generated between solvent control and treated cultures. Due to the potential subjectivity of colony enumeration, a p value of less than 0.01 is deemed significant. To calculate the concentration of 50% inhibition of colony growth (IC50) for each compound, a dose response curve was generated plotting the log of the compound concentration versus the percentage of control colony growth using XLfit software (IDBS). The concentration of 50% inhibition of colony growth (IC50) was calculated based on the sigmoid curve fit using Dose-Response, One-Site Model formula: y=A+[(B−A)/(1+((C/x)^D))], where A=the initial value (baseline response), B=maximum response, C=center (drug concentration that provokes a response halfway between A and B) and D=slope of the curve at midpoint. Further, plots and additional dose response curves were generated using GraphPad Prism 7.0.
# (§11) Erythroid (CFU-E and BFU-E), myeloid (CFU-GM) and multi-potential (CFU-GEMM) colony enumeration was performed by trained personnel. The distribution of colony types as well as general colony and cellular morphology was analyzed. For statistical analysis colony numbers in compound treated cultures were compared to the solvent control cultures. […] The experiment was used to evaluate the potential effect of test compounds on human erythroid and myeloid progenitor proliferation in a methylcellulose-based medium. […]
row,Structure (SMILES),Erythroid % control remaining @ 10 uM dose [%]
1,Cc1cc2c(cn1)CN(C(=O)Nc1nc(-c3ccc(F)cc3F)ccc1N)C2 [Compound 1],53
2,COCc1ccc2c(n1)CN(C(=O)Nc1nc(-c3ccc(F)cc3F)ccc1N)C2 [Compound 2],62
3,Cc1nc2c(s1)CN(C(=O)Nc1nc(-c3ccc(F)cc3F)ccc1N)C2 [Compound 3],89
4,Nc1ccc(-c2ccc(F)cc2F)nc1NC(=O)N1Cc2cnc(CN3CC(F)C3)cc2C1 [Compound 4],62
5,Cc1ncc2c(n1)CN(C(=O)Nc1nc(-c3ccc(F)cc3F)ccc1N)C2 [Compound 5],69
6,COCCn1cc2c(n1)CN(C(=O)Nc1nc(-c3ccc(Cl)s3)ccc1N)C2 [Compound 6],69
7,CCc1ncc2c(n1)CN(C(=O)Nc1nc(-c3ccc(F)cc3F)ccc1N)C2 [Compound 7],69
8,COCCn1cc2c(n1)CN(C(=O)Nc1nc(-c3ccccc3F)ccc1N)C2 [Compound 8],72
9,COCc1cc2c(cn1)CN(C(=O)Nc1nc(-c3ccccc3F)ccc1N)C2 [Compound 9],87
10,CCn1cc2c(n1)CN(C(=O)Nc1nc(-c3ccc(F)cc3F)ccc1N)C2 [Compound 10],38

# System: human myeloid (CFU-GM) progenitors
# Assay: Myeloid CFU assay (human bone marrow clonogenic progenitors)
# Format: cell-based
# Conditions: 14 days in culture
# Procedure: as §5, §6, §7, §8, §9, §10, §11
row,Structure (SMILES),Myeloid % control remaining @ 10 uM dose [%]
1,Cc1cc2c(cn1)CN(C(=O)Nc1nc(-c3ccc(F)cc3F)ccc1N)C2 [Compound 1],100
2,COCc1ccc2c(n1)CN(C(=O)Nc1nc(-c3ccc(F)cc3F)ccc1N)C2 [Compound 2],92
3,Cc1nc2c(s1)CN(C(=O)Nc1nc(-c3ccc(F)cc3F)ccc1N)C2 [Compound 3],109
4,Nc1ccc(-c2ccc(F)cc2F)nc1NC(=O)N1Cc2cnc(CN3CC(F)C3)cc2C1 [Compound 4],102
5,Cc1ncc2c(n1)CN(C(=O)Nc1nc(-c3ccc(F)cc3F)ccc1N)C2 [Compound 5],82
6,COCCn1cc2c(n1)CN(C(=O)Nc1nc(-c3ccc(Cl)s3)ccc1N)C2 [Compound 6],82
7,CCc1ncc2c(n1)CN(C(=O)Nc1nc(-c3ccc(F)cc3F)ccc1N)C2 [Compound 7],105
8,COCCn1cc2c(n1)CN(C(=O)Nc1nc(-c3ccccc3F)ccc1N)C2 [Compound 8],75
9,COCc1cc2c(cn1)CN(C(=O)Nc1nc(-c3ccccc3F)ccc1N)C2 [Compound 9],102
10,CCn1cc2c(n1)CN(C(=O)Nc1nc(-c3ccc(F)cc3F)ccc1N)C2 [Compound 10],77
